Experimental data taken from US10273237B2, “Imidazopyridazine compounds useful as modulators of IL-12, IL-23 and/or IFN-α responses” (BRISTOL-MYERS SQUIBB COMPANY, priority 2013, dated 2019).
Where two headings read alike, the source gives them in different places.

What was measured:
[1] = tested on: IFNα-stimulated Kit225 T cells with STAT-dependent luciferase reporter; assay: Kit225 T cell assay, STAT-dependent luciferase reporter, IFNα stimulated; format: cell-based, human; conditions: 5-6 hours, read-out: IFNa Kit225 Reporter, LE (IC50)
Method: (§1) Kit225 T cells with a stably-integrated STAT-dependent luciferase reporter were plated in RPMI (GIBCO) containing 10% heat-inactivated FBS (GIBCO) and 100 U/mL PenStrep (GIBCO). The cells were then stimulated with either 20 ng/mL human recombinant IL-23 or 200 U/mL human recombinant IFNα (PBL InterferonSource) for 5-6 hours. Luciferase expression was measured using the STEADY-GLO® Luciferase Assay System (PROMEGA®) according to the manufacturer's instructions.

[2] = tested on: IL-23-stimulated Kit225 T cells with STAT-dependent luciferase reporter; assay: Kit225 T cell assay, STAT-dependent luciferase reporter, IL-23 stimulated; format: cell-based, human; conditions: read-out: IL-23 Kit225 Reporter, LE (IC50)
Method: as §1

[3] = 200 U/mL human recombinant IFNα
[4] = 20 ng/mL human recombinant IL-23, 5-6 hours
[5] = Homo sapiens, KIT225, 200 U/mL human recombinant IFNα
[6] = Homo sapiens, KIT225, 20 ng/mL human recombinant IL-23, 5-6 hours

Row | SMILES | IC50 [1, 3] [nM] | IC50 [2, 4] [nM] | IC50 [1, 5] [nM] | IC50 [2, 6] [nM]
1 | CNc1cc(Nc2cccn(C(C)(C)C)c2=O)nn2c(C(=O)NC3(C#N)CC3)cnc12 [Example 219] | 70 | 250 | – | –
2 | CNc1cc(Nc2cccn(C3CCOC3)c2=O)nn2c(C(=O)NC3CC3)cnc12 (stereo not shown) [Example 220] | 280 | 170 | – | –
3 | CNc1cc(Nc2cccn(C3CCOC3)c2=O)nn2c(C(=O)NC3CCC3)cnc12 (stereo not shown) [Example 221] | 140 | 500 | – | –
4 | CNc1cc(Nc2cccn(C3CCOC3)c2=O)nn2c(C(=O)NC3CCCC3)cnc12 (stereo not shown) [Example 222] | 130 | 290 | – | –
5 | CNc1cc(Nc2cccn(-c3nc4ccccc4[nH]3)c2=O)nn2c(C(=O)NC3CC3)cnc12 [Example 223] | 240 | 1180 | – | –
6 | CNc1cc(Nc2cccn(C3CCC(N4CCOCC4)CC3)c2=O)nn2c(C(=O)NC3CC3)cnc12 (stereo not shown) [Example 224] | 470 | 680 | – | –
7 | CNc1cc(Nc2cccn(C3CCC(N4CCOCC4)CC3)c2=O)nn2c(C(=O)NC3CCC3)cnc12 (stereo not shown) [Example 225] | 30 | 100 | – | –
8 | CNc1cc(Nc2cccn(C3CCCCC3)c2=O)nn2c(C(=O)NC3CC3)cnc12 [Example 226] | 90 | 240 | – | –
9 | CNc1cc(Nc2cccn(C3CCC(O)CC3)c2=O)nn2c(C(=O)NC3CC3)cnc12 (stereo not shown) [Example 227] | 370 | 620 | – | –
10 | CNc1cc(Nc2cccn(C3CCC3)c2=O)nn2c(C(=O)NC3CC3)cnc12 [Example 228] | 100 | 210 | – | –
11 | CNc1cc(Nc2cccn(C3CCC3)c2=O)nn2c(C(=O)NC3(C#N)CC3)cnc12 [Example 229] | 180 | 240 | – | –
12 | CCNc1cc(Nc2cccn(C)c2=O)nn2c(C(=O)NC3CCC3)cnc12 [Example 232] | 270 | 480 | – | –
13 | CCC(CC)NC(=O)c1cnc2c(NC)cc(Nc3cccn(-c4ccc(C)nn4)c3=O)nn12 [Example 233] | 280 | 720 | – | –
14 | CNc1cc(Nc2cccn(-c3ccc(C)nn3)c2=O)nn2c(C(=O)NC(C)COC)cnc12 (stereo not shown) [Example 234] | 140 | 290 | – | –
15 | CNc1cc(Nc2cccn(-c3ccc(C)nn3)c2=O)nn2c(C(=O)NC(C)CC(C)C)cnc12 (stereo not shown) [Example 235] | 910 | 560 | – | –
16 | CNc1cc(Nc2cccn(-c3ccccn3)c2=O)nn2c(C(=O)NC3CCC(O)C3(C)C)cnc12 (stereo not shown) [Example 236] | 350 | 850 | – | –
17 | CNc1cc(Nc2cccn(-c3ccccc3)c2=O)nn2c(C(=O)NC3CCC(O)C3(C)C)cnc12 (stereo not shown) [Example 237] | 400 | 440 | – | –
18 | CNc1cc(Nc2cccn(-c3cncc(C)n3)c2=O)nn2c(C(=O)NCC(C)(C)CO)cnc12 [Example 238] | 530 | 60 | – | –
19 | O=C(NC1CCC1)c1cnc2c3c(c(Nc4cccn(-c5ccccn5)c4=O)nn12)OCCN3 [Example 239, N-Cyclobutyl-6-((2-oxo-2H-[1,2′-bipyridin]-3-yl)amino)-9,10-dihydro-8H-imidazo[1′,2′:1,6]pyridazino[4,5-b][1,4]oxazine-3-carboxamide] | – | – | 100 | 210
20 | O=C(NC1CC1)c1cnc2c3c(c(Nc4cccn(-c5ccccn5)c4=O)nn12)OCCN3 [Example 240] | – | – | 210 | 60
21 | O=C(N[C@H]1C[C@@H]1F)c1cnc2c3c(c(Nc4cccn(-c5ccccn5)c4=O)nn12)OCCN3 [Example 241] | – | – | 90 | 140
22 | CC(C)(CO)CNC(=O)c1cnc2c3c(c(Nc4cccn(-c5ccccn5)c4=O)nn12)OCCN3 [Example 242] | – | – | 360 | 170
23 | CCn1cc(Cl)cc(Nc2cc(NC)c3ncc(C(=O)NC4CC4)n3n2)c1=O [Example 243, 6-((5-chloro-1-ethyl-2-oxo-1,2-dihydropyridin-3-yl)amino)-N-cyclopropyl-8-(methylamino)imidazo[1,2-b]pyridazine-3-carboxamide] | – | – | 20 | 50
24 | CCCCn1cc(Cl)cc(Nc2cc(NC)c3ncc(C(=O)NC4CC4)n3n2)c1=O [Example 244] | – | – | 120 | 290
25 | CNc1cc(Nc2cccn(C3CCN(C(=O)C4(C(F)(F)F)CC4)CC3)c2=O)nn2c(C(=O)NC3CC3)cnc12 [Example 246] | – | – | 220 | 200
26 | CNc1cc(Nc2cccn(C3CCN(C(=O)C4CCCO4)CC3)c2=O)nn2c(C(=O)NC3CC3)cnc12 (stereo not shown) [Example 247] | – | – | 350 | 420
27 | CNc1cc(Nc2cccn(C3CCN(C(=O)C4CC4(F)F)CC3)c2=O)nn2c(C(=O)NC3CC3)cnc12 (stereo not shown) [Example 248] | – | – | 230 | 280
28 | CCC(=O)N1CCC(n2cccc(Nc3cc(NC)c4ncc(C(=O)NC5CC5)n4n3)c2=O)CC1 [Example 249] | – | – | 250 | 500
29 | CNc1cc(Nc2cccn(C3CCN(CC(F)F)CC3)c2=O)nn2c(C(=O)NC3CC3)cnc12 [Example 250] | – | – | 390 | 100
